Measurements: patent US10344060B2 (priority 2013, dated 2019)

Columns and labels:
Assay in all cases: cell-based
hNav1.7 = hNav1.7 (Homo sapiens, UniProt Q15858); settings: read-out: IC50 (μM) Nav1.7
hNav1.4 = hNav1.4 (Homo sapiens, UniProt P35499); format: cell-based; settings: Table 6; for IC50: IonWorks Quattro, read-out: IC50 (μM) Nav1.4; for Nav1.4/Nav1.7: ratio of IonWorks Quattro IC50 values
hNav1.5 = hNav1.5 (Homo sapiens, UniProt Q14524); settings: IonWorks Quattro; Table 6; read-out: IC50 (μM) Nav1.5
hNav1.3 = hNav1.3 (Homo sapiens, UniProt Q9NY46); settings: IonWorks Quattro; Table 6; read-out: IC50 (μM) Nav1.3
hNav1.3, sequence (Q9NY46 whole entry): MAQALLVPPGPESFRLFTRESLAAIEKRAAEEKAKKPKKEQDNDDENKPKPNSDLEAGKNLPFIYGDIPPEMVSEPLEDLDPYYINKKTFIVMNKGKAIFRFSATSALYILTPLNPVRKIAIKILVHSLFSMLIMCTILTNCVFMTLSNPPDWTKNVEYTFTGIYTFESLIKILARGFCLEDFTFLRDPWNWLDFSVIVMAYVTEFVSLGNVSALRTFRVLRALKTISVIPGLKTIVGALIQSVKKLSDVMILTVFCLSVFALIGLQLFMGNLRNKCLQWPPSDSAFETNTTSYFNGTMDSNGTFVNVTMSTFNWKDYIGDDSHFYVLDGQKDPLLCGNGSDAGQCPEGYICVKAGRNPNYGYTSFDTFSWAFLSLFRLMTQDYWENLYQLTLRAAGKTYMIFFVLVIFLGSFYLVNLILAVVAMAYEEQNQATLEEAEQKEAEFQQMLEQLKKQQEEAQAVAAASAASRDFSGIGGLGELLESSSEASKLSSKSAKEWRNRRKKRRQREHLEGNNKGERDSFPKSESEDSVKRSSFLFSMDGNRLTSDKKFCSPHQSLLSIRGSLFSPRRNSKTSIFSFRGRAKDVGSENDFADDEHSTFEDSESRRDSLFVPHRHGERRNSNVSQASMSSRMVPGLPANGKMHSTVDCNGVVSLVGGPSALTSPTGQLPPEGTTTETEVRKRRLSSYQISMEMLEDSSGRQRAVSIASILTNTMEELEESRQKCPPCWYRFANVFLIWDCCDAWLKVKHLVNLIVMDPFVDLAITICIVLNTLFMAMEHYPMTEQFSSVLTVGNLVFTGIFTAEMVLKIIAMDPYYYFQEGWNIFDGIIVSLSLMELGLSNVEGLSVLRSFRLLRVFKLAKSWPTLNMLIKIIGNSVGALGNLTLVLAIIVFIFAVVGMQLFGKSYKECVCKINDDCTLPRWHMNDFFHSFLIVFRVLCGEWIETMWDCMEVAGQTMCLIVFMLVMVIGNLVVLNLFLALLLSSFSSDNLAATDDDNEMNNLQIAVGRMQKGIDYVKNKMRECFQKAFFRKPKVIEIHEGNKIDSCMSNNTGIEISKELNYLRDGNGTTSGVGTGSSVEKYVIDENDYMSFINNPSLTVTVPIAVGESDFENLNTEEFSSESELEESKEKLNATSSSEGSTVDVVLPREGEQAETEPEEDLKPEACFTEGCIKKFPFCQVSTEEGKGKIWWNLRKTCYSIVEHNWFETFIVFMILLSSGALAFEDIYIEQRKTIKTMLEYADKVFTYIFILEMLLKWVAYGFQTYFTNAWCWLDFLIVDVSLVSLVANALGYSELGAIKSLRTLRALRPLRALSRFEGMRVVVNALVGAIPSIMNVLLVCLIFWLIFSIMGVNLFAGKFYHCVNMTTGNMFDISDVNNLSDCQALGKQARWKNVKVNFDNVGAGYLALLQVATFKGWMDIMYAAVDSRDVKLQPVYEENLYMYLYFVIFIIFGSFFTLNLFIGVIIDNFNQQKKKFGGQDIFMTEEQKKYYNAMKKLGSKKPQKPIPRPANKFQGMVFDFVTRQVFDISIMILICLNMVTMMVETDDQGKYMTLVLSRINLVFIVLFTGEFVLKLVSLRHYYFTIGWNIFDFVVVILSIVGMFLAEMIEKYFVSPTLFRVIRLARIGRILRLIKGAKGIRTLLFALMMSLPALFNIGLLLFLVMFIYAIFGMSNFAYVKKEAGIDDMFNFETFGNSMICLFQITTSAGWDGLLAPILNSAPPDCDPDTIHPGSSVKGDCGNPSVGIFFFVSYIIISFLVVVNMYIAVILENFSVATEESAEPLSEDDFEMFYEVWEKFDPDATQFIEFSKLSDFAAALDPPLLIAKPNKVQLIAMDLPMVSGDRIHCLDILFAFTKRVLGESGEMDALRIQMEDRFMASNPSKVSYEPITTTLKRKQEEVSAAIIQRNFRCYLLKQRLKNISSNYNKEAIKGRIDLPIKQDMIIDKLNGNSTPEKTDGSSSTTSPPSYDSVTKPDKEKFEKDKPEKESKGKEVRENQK

hNav1.4, sequence (P35499 whole entry): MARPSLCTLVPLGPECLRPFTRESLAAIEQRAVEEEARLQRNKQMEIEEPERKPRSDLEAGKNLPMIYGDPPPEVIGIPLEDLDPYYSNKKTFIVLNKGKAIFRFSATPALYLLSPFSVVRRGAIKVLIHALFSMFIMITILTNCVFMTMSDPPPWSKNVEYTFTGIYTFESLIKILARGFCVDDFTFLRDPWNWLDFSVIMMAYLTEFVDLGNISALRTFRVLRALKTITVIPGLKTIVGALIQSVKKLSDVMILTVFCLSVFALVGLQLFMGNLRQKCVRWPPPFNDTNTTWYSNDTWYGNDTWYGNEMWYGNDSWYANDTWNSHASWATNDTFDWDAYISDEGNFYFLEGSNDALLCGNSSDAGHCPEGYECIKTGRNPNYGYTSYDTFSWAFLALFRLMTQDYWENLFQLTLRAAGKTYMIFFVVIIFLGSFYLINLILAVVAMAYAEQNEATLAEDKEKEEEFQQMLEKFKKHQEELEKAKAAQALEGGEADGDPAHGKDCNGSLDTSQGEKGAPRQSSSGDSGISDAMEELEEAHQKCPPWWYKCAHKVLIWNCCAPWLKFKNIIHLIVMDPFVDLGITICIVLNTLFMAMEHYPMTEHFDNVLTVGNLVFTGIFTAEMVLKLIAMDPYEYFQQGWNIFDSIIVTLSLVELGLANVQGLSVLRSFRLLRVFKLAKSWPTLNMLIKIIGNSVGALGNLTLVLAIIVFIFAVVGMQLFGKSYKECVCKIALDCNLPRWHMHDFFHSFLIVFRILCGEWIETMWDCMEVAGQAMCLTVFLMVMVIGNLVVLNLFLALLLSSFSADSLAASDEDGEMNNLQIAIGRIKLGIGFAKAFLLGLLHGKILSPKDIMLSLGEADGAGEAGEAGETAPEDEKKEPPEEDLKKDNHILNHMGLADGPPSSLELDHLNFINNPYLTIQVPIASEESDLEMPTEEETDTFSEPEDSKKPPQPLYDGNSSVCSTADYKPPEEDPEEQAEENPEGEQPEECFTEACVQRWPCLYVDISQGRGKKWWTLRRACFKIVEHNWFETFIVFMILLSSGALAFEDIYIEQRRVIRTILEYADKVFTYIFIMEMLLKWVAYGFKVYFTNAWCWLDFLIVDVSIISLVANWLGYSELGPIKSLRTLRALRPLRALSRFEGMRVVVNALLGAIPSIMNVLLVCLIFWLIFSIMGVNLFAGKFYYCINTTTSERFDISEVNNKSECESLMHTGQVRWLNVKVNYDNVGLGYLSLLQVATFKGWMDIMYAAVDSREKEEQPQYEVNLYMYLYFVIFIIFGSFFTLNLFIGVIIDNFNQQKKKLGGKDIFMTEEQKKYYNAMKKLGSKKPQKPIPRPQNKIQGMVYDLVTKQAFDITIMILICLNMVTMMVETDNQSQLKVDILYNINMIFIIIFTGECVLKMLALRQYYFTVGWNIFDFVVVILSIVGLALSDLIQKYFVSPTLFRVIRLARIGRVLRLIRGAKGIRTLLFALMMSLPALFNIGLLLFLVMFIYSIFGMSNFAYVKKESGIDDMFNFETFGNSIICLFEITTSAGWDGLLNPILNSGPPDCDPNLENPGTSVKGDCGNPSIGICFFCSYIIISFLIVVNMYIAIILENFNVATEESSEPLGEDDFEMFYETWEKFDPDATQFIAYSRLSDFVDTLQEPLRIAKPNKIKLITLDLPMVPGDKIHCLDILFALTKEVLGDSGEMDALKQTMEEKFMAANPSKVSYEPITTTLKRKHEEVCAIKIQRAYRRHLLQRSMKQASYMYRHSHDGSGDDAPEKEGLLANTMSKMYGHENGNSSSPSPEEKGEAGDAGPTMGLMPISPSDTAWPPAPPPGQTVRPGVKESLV

`CC[C@H](C)[C@H](NC(=O)[C@@H](NC(=O)[C@H](CCCCN)NC(=O)[C@H](CCCNC(=N)N)NC(=O)[C@@H]1CSSC[C@@H]2NC(=O)[C@H](C)NC(=O)[C@H](CCCNC(=N)N)NC(=O)[C@H](CCCCN)NC(=O)[C@H](CO)NC(=O)[C@H](CC(=O)O)NC(=O)[C@@H]3CSSC[C@H](NC(=O)[C@H](CCCNC(=N)N)NC(=O)[C@H](CC(C)C)NC(=O)CNC(=O)[C@H](CCC(=O)O)NC(=O)[C@H](CSSC[C@H](NC(=O)[C@@H](N)Cc4ccc(O)cc4)C(=O)N[C@@H](CCC(N)=O)C(=O)N[C@@H](CCCCN)C(=O)N[C@@H](Cc4c[nH]c5ccccc45)C(=O)N[C@@H](CCSC)C(=O)N[C@@H](Cc4c[nH]c5ccccc45)C(=O)N[C@@H]([C@@H](C)O)C(=O)N3)NC2=O)C(=O)N[C@@H](CCCCN)C(=O)N[C@@H](CCCCN)C(=O)N[C@@H](Cc2c[nH]c3ccccc23)C(=O)N1)[C@@H](C)CC)C(N)=O` [compound 85] was tested, and the IC50 (hNav1.7) was 0.24 µM, the IC50 (hNav1.4) was 0.29 µM and the Nav1.4/Nav1.7 (hNav1.4) was 1. For the same molecule, the IC50 (hNav1.5) was 4.1 µM and the IC50 (hNav1.3) was 0.14 µM.

For `CC[C@H](C)[C@H](NC(=O)[C@H](CCCCN)NC(=O)[C@H](CCCCN)NC(=O)[C@H](CCCNC(=N)N)NC(=O)[C@@H]1CSSC[C@@H]2NC(=O)[C@H](C)NC(=O)[C@H](CCCNC(=N)N)NC(=O)[C@H](CCCCN)NC(=O)[C@H](CO)NC(=O)[C@H](CC(=O)O)NC(=O)[C@@H]3CSSC[C@H](NC(=O)[C@H](CCCNC(=N)N)NC(=O)[C@H](CC(C)C)NC(=O)CNC(=O)[C@H](CCC(=O)O)NC(=O)[C@H](CSSC[C@H](NC(=O)[C@@H](N)Cc4ccc(O)cc4)C(=O)N[C@@H](CCC(N)=O)C(=O)N[C@@H](CCCCN)C(=O)N[C@@H](Cc4c[nH]c5ccccc45)C(=O)N[C@@H](CCSC)C(=O)N[C@@H](Cc4c[nH]c5ccccc45)C(=O)N[C@@H]([C@@H](C)O)C(=O)N3)NC2=O)C(=O)N[C@@H](CCCCN)C(=O)N[C@@H](CC(C)C)C(=O)N[C@@H](Cc2c[nH]c3ccccc23)C(=O)N1)C(N)=O` [compound 88], the IC50 (hNav1.7) was 0.014 µM, the IC50 (hNav1.4) was 0.11 µM and the Nav1.4/Nav1.7 (hNav1.4) was 8. For the same molecule, the IC50 (hNav1.5) was 1.5 µM and the IC50 (hNav1.3) was 0.05 µM.

Work on `CC[C@H](C)[C@H](NC(=O)[C@H](CCCCN)NC(=O)[C@H](CCCNC(=N)N)NC(=O)[C@@H]1CSSC[C@@H]2NC(=O)[C@H](C)NC(=O)[C@H](CCCNC(=N)N)NC(=O)[C@H](CCCCN)NC(=O)[C@H](CO)NC(=O)[C@H](CC(=O)O)NC(=O)[C@@H]3CSSC[C@H](NC(=O)[C@H](CCCNC(=N)N)NC(=O)[C@H](CC(C)C)NC(=O)CNC(=O)[C@H](CCC(=O)O)NC(=O)[C@H](CSSC[C@H](NC(=O)[C@@H](N)Cc4ccc(O)cc4)C(=O)N[C@@H](CCC(N)=O)C(=O)N[C@@H](CCCCN)C(=O)N[C@@H](Cc4c[nH]c5ccccc45)C(=O)N[C@@H](CCSC)C(=O)N[C@@H](Cc4c[nH]c5ccccc45)C(=O)N[C@@H]([C@@H](C)O)C(=O)N3)NC2=O)C(=O)N[C@@H](CCCCN)C(=O)N[C@@H](CC(C)C)C(=O)N[C@@H](Cc2c[nH]c3ccccc23)C(=O)N1)C(=O)N[C@@H](CCCCN)C(N)=O` [compound 89] yielded an IC50 (hNav1.7) of 0.11 µM, an IC50 (hNav1.4) of 1.3 µM and a Nav1.4/Nav1.7 (hNav1.4) of 11. The IC50 (hNav1.5) was greater than 5 µM and the IC50 (hNav1.3) was 2.4 µM.

`CC[C@H](C)[C@H](NC(=O)[C@@H](NC(=O)[C@H](CCCCN)NC(=O)[C@H](CCCNC(=N)N)NC(=O)[C@@H]1CSSC[C@@H]2NC(=O)[C@H](C)NC(=O)[C@H](CCCNC(=N)N)NC(=O)[C@H](CCCCN)NC(=O)[C@H](CO)NC(=O)[C@H](CC(=O)O)NC(=O)[C@@H]3CSSC[C@H](NC(=O)[C@H](CCCNC(=N)N)NC(=O)[C@H](CC(C)C)NC(=O)CNC(=O)[C@H](CCC(=O)O)NC(=O)[C@H](CSSC[C@H](NC(=O)[C@@H](N)CCCNC(=N)N)C(=O)N[C@@H](CCC(N)=O)C(=O)N[C@@H](CCCCN)C(=O)N[C@@H](Cc4c[nH]c5ccccc45)C(=O)N[C@@H](CCSC)C(=O)N[C@@H](Cc4c[nH]c5ccccc45)C(=O)N[C@@H]([C@@H](C)O)C(=O)N3)NC2=O)C(=O)N[C@@H](CCCCN)C(=O)N[C@@H](CC(C)C)C(=O)N[C@@H](Cc2c[nH]c3ccccc23)C(=O)N1)[C@@H](C)CC)C(N)=O` [compound 90] showed an IC50 (hNav1.7) of 0.005 µM, an IC50 (hNav1.4) of 0.12 µM and a Nav1.4/Nav1.7 (hNav1.4) of 24. It also gave an IC50 (hNav1.5) of 1.8 µM and an IC50 (hNav1.3) of 0.04 µM.

For `CC[C@H](C)[C@H](NC(=O)[C@@H](NC(=O)[C@H](CCCCN)NC(=O)[C@H](CCCNC(=N)N)NC(=O)[C@@H]1CSSC[C@@H]2NC(=O)[C@H](C)NC(=O)[C@H](CCCNC(=N)N)NC(=O)[C@H](CCCCN)NC(=O)[C@H](CO)NC(=O)[C@H](CC(=O)O)NC(=O)[C@@H]3CSSC[C@H](NC(=O)[C@H](CCCNC(=N)N)NC(=O)[C@H](CC(C)C)NC(=O)CNC(=O)[C@H](CCC(=O)O)NC(=O)[C@H](CSSC[C@H](NC(=O)[C@@H](N)Cc4ccc(O)cc4)C(=O)N[C@@H](CCCNC(=N)N)C(=O)N[C@@H](CCCCN)C(=O)N[C@@H](Cc4c[nH]c5ccccc45)C(=O)N[C@@H](CCSC)C(=O)N[C@@H](Cc4c[nH]c5ccccc45)C(=O)N[C@@H]([C@@H](C)O)C(=O)N3)NC2=O)C(=O)N[C@@H](CCCCN)C(=O)N[C@@H](CC(C)C)C(=O)N[C@@H](Cc2c[nH]c3ccccc23)C(=O)N1)[C@@H](C)CC)C(N)=O` [compound 91], the IC50 (hNav1.7) was 0.025 µM, the IC50 (hNav1.4) was 0.14 µM and the Nav1.4/Nav1.7 (hNav1.4) was 6. The IC50 (hNav1.5) was 3.2 µM and the IC50 (hNav1.3) was 0.06 µM.

For `CC[C@H](C)[C@H](NC(=O)[C@@H](NC(=O)[C@H](CCCCN)NC(=O)[C@H](CCCNC(=N)N)NC(=O)[C@@H]1CSSC[C@@H]2NC(=O)[C@H](C)NC(=O)[C@H](CCCNC(=N)N)NC(=O)[C@H](CCCCN)NC(=O)[C@H](CO)NC(=O)[C@H](CC(=O)O)NC(=O)[C@@H]3CSSC[C@H](NC(=O)[C@H](CCCNC(=N)N)NC(=O)[C@H](CC(C)C)NC(=O)CNC(=O)[C@H](CCC(=O)O)NC(=O)[C@H](CSSC[C@H](NC(=O)[C@@H](N)Cc4ccc(O)cc4)C(=O)N[C@@H](CCC(N)=O)C(=O)N[C@@H](CCCNC(=N)N)C(=O)N[C@@H](Cc4c[nH]c5ccccc45)C(=O)N[C@@H](CCSC)C(=O)N[C@@H](Cc4c[nH]c5ccccc45)C(=O)N[C@@H]([C@@H](C)O)C(=O)N3)NC2=O)C(=O)N[C@@H](CCCCN)C(=O)N[C@@H](CC(C)C)C(=O)N[C@@H](Cc2c[nH]c3ccccc23)C(=O)N1)[C@@H](C)CC)C(N)=O` [compound 92], the IC50 (hNav1.7) was 0.014 µM, the IC50 (hNav1.4) was 0.16 µM and the Nav1.4/Nav1.7 (hNav1.4) was 11. The IC50 (hNav1.5) was 2 µM and the IC50 (hNav1.3) was 0.07 µM.

Work on `CC[C@H](C)[C@H](NC(=O)[C@@H](NC(=O)[C@H](CCCCN)NC(=O)[C@H](CCCNC(=N)N)NC(=O)[C@@H]1CSSC[C@@H]2NC(=O)[C@H](C)NC(=O)[C@H](CCCNC(=N)N)NC(=O)[C@H](CCCCN)NC(=O)[C@H](CO)NC(=O)[C@H](CC(=O)O)NC(=O)[C@@H]3CSSC[C@H](NC(=O)[C@H](CCCNC(=N)N)NC(=O)[C@H](CC(C)C)NC(=O)CNC(=O)[C@H](CCC(=O)O)NC(=O)[C@H](CSSC[C@H](NC(=O)[C@@H](N)Cc4ccc(O)cc4)C(=O)N[C@@H](CCC(N)=O)C(=O)N[C@@H](CCCCN)C(=O)N[C@@H](Cc4c[nH]c5ccccc45)C(=O)N[C@@H](CCSC)C(=O)N[C@@H](CCCNC(=N)N)C(=O)N[C@@H]([C@@H](C)O)C(=O)N3)NC2=O)C(=O)N[C@@H](CCCCN)C(=O)N[C@@H](CC(C)C)C(=O)N[C@@H](Cc2c[nH]c3ccccc23)C(=O)N1)[C@@H](C)CC)C(N)=O` [compound 95] yielded an IC50 (hNav1.7) of 0.053 µM, an IC50 (hNav1.4) of 0.4 µM and a Nav1.4/Nav1.7 (hNav1.4) of 8. For the same molecule, the IC50 (hNav1.5) was greater than 5 µM and the IC50 (hNav1.3) was 0.08 µM.

`CC[C@H](C)[C@H](NC(=O)[C@@H](NC(=O)[C@H](CCCCN)NC(=O)[C@H](CCCNC(=N)N)NC(=O)[C@@H]1CSSC[C@@H]2NC(=O)[C@H](C)NC(=O)[C@H](CCCNC(=N)N)NC(=O)[C@H](CCCCN)NC(=O)[C@H](CO)NC(=O)[C@H](CC(=O)O)NC(=O)[C@@H]3CSSC[C@H](NC(=O)[C@H](CCCNC(=N)N)NC(=O)[C@H](CC(C)C)NC(=O)CNC(=O)[C@H](CCC(=O)O)NC(=O)[C@H](CSSC[C@H](NC(=O)[C@@H](N)Cc4ccc(O)cc4)C(=O)N[C@@H](CCC(N)=O)C(=O)N[C@@H](CCCCN)C(=O)N[C@@H](Cc4c[nH]c5ccccc45)C(=O)N[C@@H](CCSC)C(=O)N[C@@H](Cc4c[nH]c5ccccc45)C(=O)N[C@@H](CCCNC(=N)N)C(=O)N3)NC2=O)C(=O)N[C@@H](CCCCN)C(=O)N[C@@H](CC(C)C)C(=O)N[C@@H](Cc2c[nH]c3ccccc23)C(=O)N1)[C@@H](C)CC)C(N)=O` [compound 96] showed an IC50 (hNav1.7) of 0.018 µM, an IC50 (hNav1.4) of 0.14 µM and a Nav1.4/Nav1.7 (hNav1.4) of 7. It also gave an IC50 (hNav1.5) of 1.7 µM and an IC50 (hNav1.3) of 0.05 µM.

With `CC[C@H](C)[C@H](NC(=O)[C@@H](NC(=O)[C@H](CCCCN)NC(=O)[C@H](CCCNC(=N)N)NC(=O)[C@@H]1CSSC[C@@H]2NC(=O)[C@H](C)NC(=O)[C@H](CCCNC(=N)N)NC(=O)[C@H](CCCCN)NC(=O)[C@H](CCCNC(=N)N)NC(=O)[C@H](CC(=O)O)NC(=O)[C@@H]3CSSC[C@H](NC(=O)[C@H](CCCNC(=N)N)NC(=O)[C@H](CC(C)C)NC(=O)CNC(=O)[C@H](CCC(=O)O)NC(=O)[C@H](CSSC[C@H](NC(=O)[C@@H](N)Cc4ccc(O)cc4)C(=O)N[C@@H](CCC(N)=O)C(=O)N[C@@H](CCCCN)C(=O)N[C@@H](Cc4c[nH]c5ccccc45)C(=O)N[C@@H](CCSC)C(=O)N[C@@H](Cc4c[nH]c5ccccc45)C(=O)N[C@@H]([C@@H](C)O)C(=O)N3)NC2=O)C(=O)N[C@@H](CCCCN)C(=O)N[C@@H](CC(C)C)C(=O)N[C@@H](Cc2c[nH]c3ccccc23)C(=O)N1)[C@@H](C)CC)C(N)=O` [compound 98] the IC50 (hNav1.7) was 0.007 µM, the IC50 (hNav1.4) was 0.09 µM and the Nav1.4/Nav1.7 (hNav1.4) was 12. It also gave an IC50 (hNav1.5) of 0.86 µM and an IC50 (hNav1.3) of 0.03 µM.
